System: Detroit D562 cells
Assay: Airway epithelial cells pretreated with component, then stimulated with viral infection proxy poly I:C; cytokine ELISA of supernatant
Format: cell-based
Conditions: Example 7; Galunisertib alone 100 nM
Description: Detroit […] cells (ATCC-CCL138) were cultured in a T75 flask (Corning cat. No. 430641) in minimum essential medium (MEM, Invitrogen Catalog No. 21090-022) with 1× non-essential amino acids (Invitrogen cat. No. 11140-035), 10 mM sodium pyruvate (Invitrogen cat. No. 11360-039), 2 mM glutamax (Invitrogen cat. No. 35050-038), 1000 U/ml antibiotics penicillin, 1000 μg/ml […] and 10% serum (Hyclone, GE healthcare Life Sciences, lot. No. RB35936), henceforth called 10% complete medium with serum (CMS). Cells were trypsinized when confluency of 80% or greater was achieved, using 3 ml of Trypsin-EDTA (Invitrogen, cat. No. 25200-056) and resuspended into 12 ml of 10% CMS. Cells were counted and seeded at 6*10^4 cells/ml in three 24-well tissue culture treated plate (Corning cat. No. 3527) with 1 ml per well. These were cultured for one week till confluent. […] All the components were calibrated on protein concentration and added on cells at the calculated total protein concertation of 1 mg/ml on dry matter. […] ELISA kits from R&D Systems (Biotechne) were used to quantify cytokines IL-8/CXCL8 (DY208), IL-6 (DY206), TNF-α (DY210) and IFN-λ1/3 (DY1598B) according to the manufacturer's guidelines. Absorbance was measured at 450 nm and corrected for at 570 nm using the Biorad iMark plate reader & Imark software version 6.2. Cytokines were quantified before and after the addition of poly I:C.

SMILES: Cc1cccc(-c2nn3c(c2-c2ccnc4ccc(C(N)=O)cc24)CCC3)n1 [Galunisertib]
- effect of Galunisertib alone on the cells: had no effect on the cells

Reference: patent publication US20260158111A1, “USE OF TGF IN THE PREVENTION VIRUS INFECTION OF THE RESPIRATORY TRACT” (FrieslandCampina Nederland B.V., priority 2021, published 2026)
